Source: patent US9809574B2, “Isoindoline or isoquinoline compounds, a process for their preparation and pharmaceutical compositions containing them” (LES LABORATOIRES SERVIER, priority 2013, dated 2017)
Where a name gives a salt, the structure may show the parent alone.

Experiments:
Bcl-2 protein = Bcl-2 protein (histag-Bcl-2, UniProtKB P10415) (Homo sapiens (Human), UniProt P10415); assay: Inhibition of Bcl-2 by the fluorescence polarisation technique; assay type: binding; settings: fluorescence polarisation test; incubation for 2 hours; read-out: IC50 (nM) Bcl-2 FP
Sequence of Bcl-2 protein (P10415 whole entry): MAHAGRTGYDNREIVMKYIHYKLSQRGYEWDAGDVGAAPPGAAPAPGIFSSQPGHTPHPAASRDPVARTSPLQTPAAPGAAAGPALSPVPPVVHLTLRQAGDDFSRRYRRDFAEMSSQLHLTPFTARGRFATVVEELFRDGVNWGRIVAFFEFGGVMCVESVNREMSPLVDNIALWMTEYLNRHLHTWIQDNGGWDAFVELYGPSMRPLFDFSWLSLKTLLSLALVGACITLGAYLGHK
From the text: For partial inhibitors, the percentage fluorescence polarisation inhibition for a given concentration of the test compound is indicated.

[1] = tested on: RS4; 11 leukaemia cell line; assay: In vitro cytotoxicity, Microculture Tetrazolium Assay (MTT); assay type: cell-based; settings: Homo sapiens, 11 cells exposed for 48 hours
Protocol: The cytotoxicity studies were carried out on the RS4; 11 leukaemia cell line and on H146 small Cell Lung Carcinoma cell line. The cells are distributed onto microplates and exposed to the test compounds for 48 hours. The cell viability is then quantified by a colorimetric assay, the Microculture Tetrazolium Assay (Cancer Res., 1987, 47, 939-942).

Row | SMILES | IC50 (Bcl-2 protein) [nM] | IC50 [1] [nM]
1 | COc1cc(C#N)ccc1OC(=O)N1CCc2cc(-c3cc(C(=O)N(C)c4ccc(O)cc4)c4n3CCCC4)c(C(=O)N3Cc4ccccc4C[C@H]3CN3CCOCC3)cc2C1 [Example 148, 4-Cyano-2-methoxyphenyl 6-{1-[(4-hydroxyphenyl)(methyl)carbamoyl]-5,6,7,8-tetrahydroindolizin-3-yl}-7-[(3S)-3-(morpholin-4-ylmethyl)-1,2,3,4-tetrahydroisoquinoline-2-carbonyl]-1,2,3,4-tetrahydroisoquinoline-2-carboxylate] | 3 | 10
2 | Cc1c(C(=O)N(C)c2ccc(O)cc2)cc(-c2cc3c(cc2C(=O)N2Cc4ccccc4C[C@H]2CN2CCOCC2)CN(C(=O)Oc2ccc(C(=O)O)cc2)CC3)n1C [Example 721, 4-(6-{4-[(4-Hydroxyphenyl)(methyl)carbamoyl]-1,5-dimethyl-1H-pyrrol-2-yl}-7-[(3S)-3-(morpholin-4-ylmethyl)-1,2,3,4-tetrahydroisoquinoline-2-carbonyl]-1,2,3,4-tetrahydroisoquinoline-2-carbonyloxy)benzoic acid] | 4.9 | > 150
3 | CN(C(=O)c1cc(-c2cc3c(cc2C(=O)N2Cc4ccccc4C[C@H]2CN2CCOCC2)CN(C(=O)Oc2ccc(-n4ccnc4)cc2)CC3)n2c1CCCC2)c1ccc(O)cc1 [Example 143, 4-(1H-imidazol-1-yl)phenyl 6-{1-[(4-hydroxyphenyl)(methyl)carbamoyl]-5,6,7,8-tetrahydroindolizin-3-yl}-7-[(3S)-3-(morpholin-4-ylmethyl)-1,2,3,4-tetrahydroisoquinoline-2-carbonyl]-1,2,3,4-tetrahydroisoquinoline-2-carboxylate] | 5.5 | 9.3
4 | C[C@@H]1Cc2ccccc2CN1C(=O)c1cc2c(cc1-c1cc(C(=O)N(C)c3ccc(O)cc3)c3n1CCCC3)CCN(C(=O)Cc1ccccc1)C2 [Example 36, N-(4-Hydroxyphenyl)-N-methyl-3-{7-[(3R)-3-methyl-1,2,3,4-tetrahydroisoquinoline-2-carbonyl]-2-(2-phenylacetyl)-1,2,3,4-tetrahydroisoquinolin-6-yl}-5,6,7,8-tetrahydroindolizine-1-carboxamide] | 4.8 | 6.2
5 | CN(C(=O)c1cc(-c2cc3c(cc2C(=O)N2Cc4ccccc4C[C@H]2CN2CCOCC2)CN(S(=O)(=O)c2cccnc2)C3)n2c1CCCC2)c1ccc(O)cc1 [Example 22, N-(4-Hydroxyphenyl)-N-methyl-3-{6-[(3S)-3-(morpholin-4-ylmethyl)-1,2,3,4-tetrahydroisoquinoline-2-carbonyl]-2-(pyridine-3-sulfonyl)-2,3-dihydro-1H-isoindol-5-yl}-5,6,7,8-tetrahydroindolizine-1-carboxamide hydrochloride] | 70 | > 150
6 | CN(C(=O)c1cc(-c2cc3c(cc2C(=O)N2Cc4ccccc4C[C@H]2CN2CCOCC2)CN(S(=O)(=O)Cc2ccccc2)CC3)n2c1CCCC2)c1ccc(O)cc1 [Example 4, N-(4-Hydroxyphenyl)-N-methyl-3-{7-[(3S)-3-(morpholin-4-ylmethyl)-1,2,3,4-tetrahydroisoquinoline-2-carbonyl]-2-phenylmethanesulfonyl-1,2,3,4-tetrahydroisoquinolin-6-yl}-5,6,7,8-tetrahydroindolizine-1-carboxamide] | 9.2 | 71
7 | CCCCN(C(=O)c1cc(-c2cc3c(cc2C(=O)N2Cc4ccccc4C[C@H]2CN2CCOCC2)CN(C(=O)Oc2ccccc2)CC3)n(C)c1C)c1ccc(O)cc1 [Example 187, Phenyl 6-{4-[butyl(4-hydroxyphenyl)carbamoyl]-1,5-dimethyl-1H-pyrrol-2-yl}-7-[(3S)-3-(morpholin-4-ylmethyl)-1,2,3,4-tetrahydroisoquinoline-2-carbonyl]-1,2,3,4-tetrahydroisoquinoline-2-carboxylate] | 3 | 4.6
8 | Cc1c(C(=O)N(C)c2ccc(O)cc2)cc(-c2cc3c(cc2C(=O)N2Cc4ccccc4C[C@H]2CN2CCOCC2)CN(C(=O)Oc2ccc4ccccc4c2)CC3)n1C [Example 574, Naphthalen-2-yl 6-{4-[(4-hydroxyphenyl)(methyl)carbamoyl]-1,5-dimethyl-1H-pyrrol-2-yl}-7-[(3S)-3-(morpholin-4-ylmethyl)-1,2,3,4-tetrahydroisoquinoline-2-carbonyl]-1,2,3,4-tetrahydroisoquinoline-2-carboxylate] | 8.8 | 11
9 | C[C@@H]1Cc2ccccc2CN1C(=O)c1cc2c(cc1-c1cc(C(=O)N(C)c3ccc(O)cc3)c3n1CCCC3)CN(C(=O)COc1ccccc1)C2 [Example 52, N-(4-Hydroxyphenyl)-N-methyl-3-{6-[(3R)-3-methyl-1,2,3,4-tetrahydroisoquinoline-2-carbonyl]-2-(2-phenoxyacetyl)-2,3-dihydro-1H-isoindol-5-yl}-5,6,7,8-tetrahydroindolizine-1-carboxamide] | 3.8 | 56
10 | C[C@@H]1Cc2ccccc2CN1C(=O)c1cc2c(cc1-c1cc(C(=O)N(C)c3ccc(O)cc3)c3n1CCCC3)CN(C(=O)CCC1CCCCC1)C2 [Example 32, 3-[2-(3-Cyclohexylpropanoyl)-6-[(3R)-3-methyl-1,2,3,4-tetrahydroisoquinoline-2-carbonyl]-2,3-dihydro-1H-isoindol-5-yl]-N-(4-hydroxyphenyl)-N-methyl-5,6,7,8-tetrahydroindolizine-1-carboxamide] | 47 | 141

The next lines start with results.

Row | IC50 (Bcl-2 protein) [nM] | SMILES | IC50 [1] [nM]
11 | 3.8 | Cc1c(C(=O)N(C)c2ccccc2)cc(-c2cc3c(cc2C(=O)N2Cc4ccccc4C[C@H]2CCCN2CCOCC2)CN(C(=O)OC2CCCCC2)CC3)n1C [Example 811, Cyclohexyl 6-{1,5-dimethyl-4-[methyl(phenyl)carbamoyl]-1H-pyrrol-2-yl}-7-[(3R)-3-[3-(morpholin-4-yl)propyl]-1,2,3,4-tetrahydroisoquinoline-2-carbonyl]-1,2,3,4-tetrahydroisoquinoline-2-carboxylate] | 94
12 | 5.6 | CNC(=O)N1CCc2cc(-c3cc(C(=O)N(C)c4ccc(O)cc4)c4n3CCCC4)c(C(=O)N3Cc4ccccc4C[C@H]3C)cc2C1 [Example 79, 6-{1-[(4-Hydroxyphenyl)(methyl)carbamoyl]-5,6,7,8-tetrahydroindolizin-3-yl}-N-methyl-7-[(3R)-3-methyl-1,2,3,4-tetrahydroisoquinoline-2-carbonyl]-1,2,3,4-tetrahydroisoquinoline-2-carboxamide] | > 150
13 | 4.3 | C[C@@H]1Cc2ccccc2CN1C(=O)c1cc2c(cc1-c1cc(C(=O)N(C)c3ccc(O)cc3)c3n1CCCC3)CCN(C(=O)NCc1ccccc1)C2 [Example 73, N-Benzyl-6-{1-[(4-hydroxyphenyl)(methyl)carbamoyl]-5,6,7,8-tetrahydroindolizin-3-yl}-7-[(3R)-3-methyl-1,2,3,4-tetrahydroisoquinoline-2-carbonyl]-1,2,3,4-tetrahydroisoquinoline-2-carboxamide] | 36
14 | 5.2 | Cc1c(C(=O)N(C)c2ccc(O)cc2)cc(-c2cc3c(cc2C(=O)N2Cc4ccccc4C[C@H]2C)CN(C(=O)Nc2ccccc2)CC3)n1C [Example 253, 6-{4-[(4-Hydroxyphenyl)(methyl)carbamoyl]-1,5-dimethyl-1H-pyrrol-2-yl}-7-[(3R)-3-methyl-1,2,3,4-tetrahydroisoquinoline-2-carbonyl]-N-phenyl-1,2,3,4-tetrahydroisoquinoline-2-carboxamide] | 22
15 | 3.4 | Cc1c(C(=O)N(C)c2ccccc2)cc(-c2cc3c(cc2C(=O)N2Cc4ccccc4C[C@H]2C)CN(C(=O)Cc2ccccc2)CC3)n1C [Example 118, N,1,2-Trimethyl-5-{7-[(3R)-3-methyl-1,2,3,4-tetrahydroisoquinoline-2-carbonyl]-2-(2-phenylacetyl)-1,2,3,4-tetrahydroisoquinolin-6-yl}-N-phenyl-1H-pyrrole-3-carboxamide] | 43
16 | 3.9 | C[C@@H]1Cc2ccccc2CN1C(=O)c1cc2c(cc1-c1cc(C(=O)N(C)c3ccc(O)cc3)c3n1CCCC3)CCN(C(=O)Cc1ccc(NCCN3CCOCC3)cc1)C2 [Example 96, N-(4-Hydroxyphenyl)-N-methyl-3-{7-[(3R)-3-methyl-1,2,3,4-tetrahydroisoquinoline-2-carbonyl]-2-[2-(4-{[2-(morpholin-4-yl)ethyl]amino}phenyl)acetyl]-1,2,3,4-tetrahydroisoquinolin-6-yl}-5,6,7,8-tetrahydroindolizine-1-carboxamide] | 9.1
17 | 6.9 | Cc1c(C(=O)N(C)c2ccc(O)cc2)cc(-c2cc3c(cc2C(=O)N2Cc4ccccc4C[C@H]2C)CN(C(=O)COCc2ccccc2)C3)n1C [Example 160, 5-{2-[2-(Benzyloxy)acetyl]-6-[(3R)-3-methyl-1,2,3,4-tetrahydroisoquinoline-2-carbonyl]-2,3-dihydro-1H-isoindol-5-yl}-N-(4-hydroxyphenyl)-N,1,2-trimethyl-1H-pyrrole-3-carboxamide] | 86
18 | 6.5 | C[C@@H]1Cc2ccccc2CN1C(=O)c1cc2c(cc1-c1cc(C(=O)N(C)c3ccc(O)cc3)c3n1CCCC3)CN(C(=O)Nc1ccc(N3CCN(C)CC3)cc1)C2 [Example 65, 5-{1-[(4-Hydroxyphenyl)(methyl)carbamoyl]-5,6,7,8-tetrahydroindolizin-3-yl}-6-[(3R)-3-methyl-1,2,3,4-tetrahydroisoquinoline-2-carbonyl]-N-[4-(4-methylpiperazin-1-yl)phenyl]-2,3-dihydro-1H-isoindole-2-carboxamide] | 51
